From PMC2843921 (ACS chemical neuroscience, 2010)
Counter-ions that a name gives are not always drawn. Non-standard residues stand in square brackets, D forms with d. Residues, ends and D or L forms follow the SMILES beside them. *: point of attachment. Dmt = Cc1cc(O)cc(C)c1C[C@H](N)C(=O)O; dTic = O=C(O)[C@H]1Cc2ccccc2CN1; NHBn = c1ccc(CN*)cc1

How the values were obtained:
human δ opioid receptor [1] = target: T1, human δ opioid receptor (Homo sapiens, UniProt P41143); assay: Stimulation of [35S]GTPγS binding, δ; assay type: biochemical; settings: for Emax: read-out: Agonism δ Emax (%)
T1 sequence (P41143 whole entry): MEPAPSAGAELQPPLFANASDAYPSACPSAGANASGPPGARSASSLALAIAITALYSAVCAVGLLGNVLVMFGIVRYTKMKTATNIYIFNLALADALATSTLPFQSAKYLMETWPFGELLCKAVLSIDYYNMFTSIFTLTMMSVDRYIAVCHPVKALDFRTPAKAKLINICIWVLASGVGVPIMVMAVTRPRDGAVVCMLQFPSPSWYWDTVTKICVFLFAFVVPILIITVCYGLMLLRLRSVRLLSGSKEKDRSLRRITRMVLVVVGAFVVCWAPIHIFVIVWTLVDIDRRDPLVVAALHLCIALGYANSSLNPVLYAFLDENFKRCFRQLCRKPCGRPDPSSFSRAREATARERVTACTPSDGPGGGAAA

human μ opioid receptor [2] = target: T2, human μ opioid receptor (Homo sapiens, UniProt P35372); assay: Stimulation of [35S]GTPγS binding, μ; assay type: biochemical; settings: for Emax: read-out: Agonism μ Emax (%)
T2 sequence (P35372 whole entry): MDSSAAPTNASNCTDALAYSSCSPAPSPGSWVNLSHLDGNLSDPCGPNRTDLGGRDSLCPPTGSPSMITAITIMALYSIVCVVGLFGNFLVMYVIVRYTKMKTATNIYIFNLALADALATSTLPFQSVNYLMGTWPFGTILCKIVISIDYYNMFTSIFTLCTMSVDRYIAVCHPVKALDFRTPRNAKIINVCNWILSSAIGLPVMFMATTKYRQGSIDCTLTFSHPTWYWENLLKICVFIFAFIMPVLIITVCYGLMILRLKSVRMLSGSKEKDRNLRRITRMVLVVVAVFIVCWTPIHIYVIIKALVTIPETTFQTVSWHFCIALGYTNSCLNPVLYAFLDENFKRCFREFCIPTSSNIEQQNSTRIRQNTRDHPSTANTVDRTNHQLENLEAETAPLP

human δ opioid receptor [3] = target: T1, human δ opioid receptor; assay: Inhibition of SNC 80-stimulated [35S]GTPγS binding, δ; assay type: biochemical; settings: in presence of 10 nM SNC 80; NI = No inhibition
human μ opioid receptor [4] = target: T2, human μ opioid receptor; assay: Inhibition of DAMGO-stimulated [35S]GTPγS binding, μ; assay type: biochemical; settings: for Antagonism μ Imax (%): in presence of 200 nM DAMGO, NI = No inhibition
MVD = settings: read-out: MVD EC50; cited from earlier work
GPI = settings: read-out: GPI EC50; cited from earlier work

Row | Compound | EC50 (human δ opioid receptor [1]) [nM] | Emax (human δ opioid receptor [1]) [%] | EC50 (human μ opioid receptor [2]) [nM] | Emax (human μ opioid receptor [2]) [%] | Antagonism δ Imax (%) (human δ opioid receptor [3]) | Antagonism μ Imax (%) (human μ opioid receptor [4]) | inhibition at 25 µM (human μ opioid receptor [4]; read-out: Antagonism μ inhibition of DAMGO-stimulated [35S]GTPγS binding (%)) [%] | EC50 (MVD) [nM] | EC50 (GPI) [nM]
1 | Cc1cc(O)cc(C)c1C[C@H](N)C(=O)N1Cc2ccccc2C[C@@H]1C(=O)NCC(=O)NCc1ccccc1 [Compound 2, TFA·H-Dmt-D-Tic-Gly-NH-Bzl] (H-[Dmt]-[dTic]-Gly-NHBn) | 2.8 ± 0.6 | 44 ± 6.1 | 0.9 ± 0.032 | 92 ± 4 | – | – | – | – | –
2 | Cc1cc(O)cc(C)c1C[C@H](N)C(=O)N1Cc2ccccc2C[C@H]1C(=O)NCC(=O)NCc1ccc(Cl)cc1 [Compound 3, TFA·H-Dmt-Tic-Gly-NH-Bzl(pCl)] | – | 4.5 ± 0.85 | 33 ± 2.9 | 52 ± 5.5 | 93±2.2 | 43±3.3 | – | – | –
3 | Cc1ccc(CNC(=O)CNC(=O)[C@@H]2Cc3ccccc3CN2C(=O)[C@@H](N)Cc2c(C)cc(O)cc2C)cc1 [Compound 4, TFA·H-Dmt-Tic-Gly-NH-Bzl(pMe)] | – | 0.4 ± 1.43 | 63 ± 3.5 | 34 ± 6.4 | 86±5.0 | – | 65 ± 1.1 | – | –
4 | Cc1cc(O)cc(C)c1C[C@H](N)C(=O)N1Cc2ccccc2C[C@H]1C(=O)NCC(=O)NCc1ccc([N+](=O)[O-])cc1 [Compound 5, TFA·H-Dmt-Tic-Gly-NH-Bzl(pNO2)] | – | 3.1 ± 0.43 | 61 ± 15 | 16 ± 2.5 | 79±3.8 | 74±6.9 | – | – | –
5 | Cc1cc(O)cc(C)c1C[C@H](N)C(=O)N1Cc2ccccc2C[C@H]1C(=O)NCC(=O)NCc1ccc(N)cc1 [Compound 6, 2TFA·H-Dmt-Tic-Gly-NH-Bzl(pNH2)] | – | 13 ± 1 | – | – | 78±2.7 | – | – | – | –
6 | Cc1cc(O)cc(C)c1C[C@H](N)C(=O)N1Cc2ccccc2C[C@H]1C(=O)NCC(=O)NC(c1ccccc1)c1ccccc1 [Compound 7, TFA·H-Dmt-Tic-Gly-NH-Benzhydryl] | – | -1.9 ± 0.17 | 4.8 ± 0.16 | 45 ± 1.2 | 100±7.4 | – | – | – | –
7 | Cc1cc(O)cc(C)c1C[C@H](N)C(=O)N1Cc2ccccc2C[C@H]1C(=O)NCC(=O)N1CCc2ccccc2C1 [Compound 8, TFA·H-Dmt-Tic-Gly-1,2,3,4-tetrahydroisoquinoline] | – | -1.4 ± 0.14 | – | 43 ± 6.6 | 99±3.3 | – | – | – | –
8 | H-Dmt-Tic-Gly-Ph | – | – | – | – | – | – | – | 3.02 | 2.57
